Assay [1] concerns the target cMET (Homo sapiens, UniProt P08581). Briefly: Evaluation of inhibitory activity against MET (TR-FRET). Format: biochemical. The note with it: TR-FRET kinase assay, cMET protein. Here is the method:
In addition, in order to measure the enzyme activity inhibition for cMET, the evaluation was performed in the same manner as the enzyme activity inhibition measurement experiment for the RON.
Specifically, the compound was prepared to a concentration of 1 mM with 100% DMSO and was diluted 10 times in a stepwise manner through 3-fold dilution. 2 ul of the compound diluted in a stepwise manner was added to a 96-well-plate containing 48 ul of a 1× kinase reaction buffer (50 mM HEPES (pH 7.4), 0.05% BSA, 0.005% Tween-20, 1 mM DTT, 0.5 mM MnCl2, 20 mM MgCl2).
The cMET protein was diluted to a concentration of 263 nM with a cMET storage buffer (50 mM Tris-HCl (pH 7.5), 150 mM NaCl, 0.05% Brij35, 1 mM DTT, 10% Glycerol), and then diluted again to a concentration of 2 nM with a 1× kinase reaction buffer. As a substrate cocktail, a MET-specific substrate mixture (5 uM TK peptide, […]) at a concentration 2 times the final reaction concentration.
(§1) Thereafter, a 384-well-plate was prepared, and 2.5 μl of each of the diluted compounds of Examples was added to a corresponding well of experimental group wells, and 2.5 μl of a 4% DMSO solution was dispensed into high control wells and low control wells.
(§2) Thereafter, 2.5 μL of 2 nM cMET was dispensed into the high control wells and the experimental group wells, and 2.5 μL of a 1× kinase reaction buffer was added to the low control wells, and the RON and the reaction buffer were centrifuged at room temperature for 40 seconds at 1000 RPM, and then incubated at room temperature for 20 to 30 minutes. Then, 5 uL of a substrate cocktail (2×) was dispensed into all wells, centrifuged at room temperature for 40 seconds at 1000 RPM, and then incubated at room temperature for 60 minutes. Thereafter, 5 uL of 90 mM EDTA was added to all wells to terminate the reaction, and then incubated again at room temperature for 5 minutes. Thereafter, 5 uL of a 4× phosphotyrosine antibody (Perkin Elmer) containing europium was added to all wells, and then incubated at room temperature for 60 minutes. After the incubation, the 384-well-plate was read with a Vison plate reader. At this time, the excitation wavelength was 340 nm, and the emission wavelength was 620 nm and 665 nm. The 1050 value of the compound of each Example was derived using the GraphPd Prism7 program.
(In general: In TR-FRET formats the signal depends on donor and acceptor labels being close together.)

In assay [2] the target is RON (Homo sapiens, UniProt Q04912). Briefly: Evaluation of inhibitory activity against RON (TR-FRET). The assay is classed as biochemical. The following applies: TR-FRET kinase assay, RON protein. Here is the method: In order to measure the inhibitory activity of each of the compounds of Examples against RON, the IC50 of each of the compounds was measured using a Time-Resolved Fluorescence Energy Transfer Chemistry (TR-FRET).
Specifically, the compound was prepared to a concentration of 1 mM with 100% DMSO and was diluted 10 times in a stepwise manner through 3-fold dilution. 2 ul of the compound diluted in a stepwise manner was added to a 96-well-plate containing 48 ul of a 1×kinase reaction buffer (50 mM HEPES (pH 7.4), 0.01% Tween-20, 5 mM DTT, 0.5 mM Na3VO4, 2 mM EGTA, 10 mM MgCl2).
The RON protein was diluted to a concentration of 49.3 nM with an RON storage buffer (50 mM Tris-HCl (pH 7.5), 150 mM NaCl, 0.5 mM EDTA, 0.02% Triton X-100), and then diluted again to a concentration of 0.4 nM with a 1×kinase reaction buffer. As a substrate cocktail, a RON-specific substrate mixture (40 uM ULight-labeled Poly GT, 100 nM ATP) at a concentration 2 times the final reaction concentration.
as §1
as §2, with “of 0.4” for “of 2”, “nM RON” for “nM cMET”, “of 30” for “of 90”, “The IC50” for “The 1050”

This is an account of results in patent US20240317739A1, “NOVEL UREA DERIVATIVE COMPOUND AS RON INHIBITOR” (LG CHEM, LTD., priority 2021, published 2024).

Chain of RON (Q04912 25-1400, species assumed): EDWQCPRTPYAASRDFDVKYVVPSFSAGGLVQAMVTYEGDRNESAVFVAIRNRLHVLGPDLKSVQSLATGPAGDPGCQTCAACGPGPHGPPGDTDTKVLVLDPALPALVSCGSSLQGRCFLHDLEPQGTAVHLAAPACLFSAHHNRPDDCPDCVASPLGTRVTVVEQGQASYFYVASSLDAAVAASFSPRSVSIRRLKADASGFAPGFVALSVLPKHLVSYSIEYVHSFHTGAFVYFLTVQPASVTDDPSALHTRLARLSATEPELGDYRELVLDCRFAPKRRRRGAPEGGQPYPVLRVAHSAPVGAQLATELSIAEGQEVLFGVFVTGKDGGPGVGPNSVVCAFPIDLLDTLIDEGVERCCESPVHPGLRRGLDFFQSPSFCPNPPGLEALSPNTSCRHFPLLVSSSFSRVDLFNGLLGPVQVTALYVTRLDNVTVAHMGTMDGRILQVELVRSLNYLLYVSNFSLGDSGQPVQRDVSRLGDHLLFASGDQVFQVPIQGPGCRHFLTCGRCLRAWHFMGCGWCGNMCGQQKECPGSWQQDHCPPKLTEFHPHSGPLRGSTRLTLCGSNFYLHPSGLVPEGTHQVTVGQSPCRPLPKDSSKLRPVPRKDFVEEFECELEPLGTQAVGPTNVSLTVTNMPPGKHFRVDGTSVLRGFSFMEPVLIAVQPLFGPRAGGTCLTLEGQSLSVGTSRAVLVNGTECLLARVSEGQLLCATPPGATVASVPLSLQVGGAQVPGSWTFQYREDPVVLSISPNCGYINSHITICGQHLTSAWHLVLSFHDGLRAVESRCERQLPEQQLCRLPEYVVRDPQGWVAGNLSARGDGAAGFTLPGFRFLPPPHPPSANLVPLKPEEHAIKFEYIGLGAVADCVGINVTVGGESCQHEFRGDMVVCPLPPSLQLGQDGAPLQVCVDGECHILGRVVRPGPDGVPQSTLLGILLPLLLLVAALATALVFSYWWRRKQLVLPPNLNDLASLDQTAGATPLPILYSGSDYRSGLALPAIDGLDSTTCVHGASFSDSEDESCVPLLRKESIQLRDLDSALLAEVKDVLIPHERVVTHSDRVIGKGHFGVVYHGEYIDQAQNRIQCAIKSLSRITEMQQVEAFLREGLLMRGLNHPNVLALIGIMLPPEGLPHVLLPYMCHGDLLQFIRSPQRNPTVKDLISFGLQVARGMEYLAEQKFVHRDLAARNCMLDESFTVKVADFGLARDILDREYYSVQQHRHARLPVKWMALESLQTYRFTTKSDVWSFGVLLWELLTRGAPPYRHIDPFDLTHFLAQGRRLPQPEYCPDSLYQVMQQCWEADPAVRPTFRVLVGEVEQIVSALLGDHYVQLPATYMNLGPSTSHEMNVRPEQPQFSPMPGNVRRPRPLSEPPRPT
Chain of cMET (P08581 25-1390): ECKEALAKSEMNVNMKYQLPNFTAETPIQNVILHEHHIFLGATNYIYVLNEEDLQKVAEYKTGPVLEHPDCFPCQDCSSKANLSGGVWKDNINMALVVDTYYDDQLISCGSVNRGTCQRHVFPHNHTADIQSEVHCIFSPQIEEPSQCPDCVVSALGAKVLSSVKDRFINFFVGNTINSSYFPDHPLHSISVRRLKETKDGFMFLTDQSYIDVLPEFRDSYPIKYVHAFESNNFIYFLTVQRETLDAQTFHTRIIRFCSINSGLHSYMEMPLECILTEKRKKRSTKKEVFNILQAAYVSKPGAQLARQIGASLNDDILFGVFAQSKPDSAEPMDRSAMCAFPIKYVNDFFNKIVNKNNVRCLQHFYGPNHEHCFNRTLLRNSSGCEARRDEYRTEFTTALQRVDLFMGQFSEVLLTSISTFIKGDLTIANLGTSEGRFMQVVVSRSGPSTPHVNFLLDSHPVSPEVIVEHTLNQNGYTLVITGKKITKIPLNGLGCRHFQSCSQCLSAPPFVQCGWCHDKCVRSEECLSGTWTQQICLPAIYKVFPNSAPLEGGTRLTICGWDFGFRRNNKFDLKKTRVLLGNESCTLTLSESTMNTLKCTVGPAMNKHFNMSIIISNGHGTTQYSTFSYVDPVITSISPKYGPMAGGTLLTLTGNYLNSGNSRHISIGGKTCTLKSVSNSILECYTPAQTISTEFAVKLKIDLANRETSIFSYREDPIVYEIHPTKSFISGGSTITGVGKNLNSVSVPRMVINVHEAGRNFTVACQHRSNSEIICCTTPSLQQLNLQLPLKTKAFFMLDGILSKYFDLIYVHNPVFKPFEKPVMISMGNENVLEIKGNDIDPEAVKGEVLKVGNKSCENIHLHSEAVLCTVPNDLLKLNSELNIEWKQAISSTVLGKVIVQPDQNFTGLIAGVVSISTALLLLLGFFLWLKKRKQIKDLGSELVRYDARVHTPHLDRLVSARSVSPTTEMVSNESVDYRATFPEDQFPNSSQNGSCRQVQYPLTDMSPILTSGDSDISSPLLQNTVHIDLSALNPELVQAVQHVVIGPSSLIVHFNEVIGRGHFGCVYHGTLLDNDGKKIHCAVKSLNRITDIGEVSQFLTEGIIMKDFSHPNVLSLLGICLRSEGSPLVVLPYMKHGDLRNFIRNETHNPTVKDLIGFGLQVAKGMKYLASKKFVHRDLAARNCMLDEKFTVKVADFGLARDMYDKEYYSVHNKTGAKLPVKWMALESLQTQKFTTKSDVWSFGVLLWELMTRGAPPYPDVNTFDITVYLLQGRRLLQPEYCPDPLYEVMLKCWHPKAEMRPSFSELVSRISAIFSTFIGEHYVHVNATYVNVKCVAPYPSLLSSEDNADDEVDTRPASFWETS

As usually defined, the IC50 is the concentration that gives 50% inhibition. Low values mean higher potency, high ones lower potency. As for `CC(C)n1c(=O)[nH]c2nccc(Oc3ccc(NC(=O)c4cnn(-c5cc(C6=CCOCC6)ccn5)c4C(F)(F)F)cc3F)c21` [Example 32, 1-(4-(3,6-dihydro-2H-pyran-4-yl)pyridine-2-yl)-N-(3-fluoro-4-((1-isopropyl-2-oxo-2,3-dihydro-1H-imidazo[4,5-b]pyridine-7-yl)oxy)phenyl)-5-(trifluoromethyl)-1H-pyrazole-4-carboxamide], the IC50 in assay [1] was in the range of 500 to 5000 nM; in assay [2], 50 to 500 nM.

Turning to `COc1ccnc(-n2ncc(C(=O)Nc3ccc(Oc4ccnc5[nH]c(=O)n(C(C)C)c45)c(F)c3)c2C(F)(F)F)c1` [Example 33, N-(3-fluoro-4-((1-isopropyl-2-oxo-2,3-dihydro-1H-imidazo[4,5-b]pyridine-7-yl)oxy)phenyl)-1-(4-methoxypyridine-2-yl)-5-(trifluoromethyl)-1H-pyrazole-4-carboxamide], the IC50 in assay [1] was 500 to 5000 nM; in assay [2], less than 50 nM.

As to `COc1ccc(-n2ncc(C(=O)Nc3ccc(Oc4ccnc5[nH]c(=O)n(C(C)C)c45)c(F)c3)c2C(F)(F)F)nc1` [Example 34, N-(3-fluoro-4-((1-isopropyl-2-oxo-2,3-dihydro-1H-imidazo[4,5-b]pyridine-7-yl)oxy)phenyl)-1-(5-methoxypyridine-2-yl)-5-(trifluoromethyl)-1H-pyrazole-4-carboxamide], the IC50 in assay [1] was more than 5000 nM; in assay [2] it was 50 to 500 nM.

As to `CC(C)n1c(=O)[nH]c2nccc(Oc3ccc(NC(=O)c4cnn(-c5cccnn5)c4C(F)(F)F)cc3F)c21` [Example 35, N-(3-fluoro-4-((1-isopropyl-2-oxo-2,3-dihydro-1H-imidazo[4,5-b]pyridine-7-yl)oxy)phenyl)-1-(pyridazine-3-yl)-5-(trifluoromethyl)-1H-pyrazole-4-carboxamide], the IC50 in assay [1] is 500 to 5000 nM; in assay [2] it was less than 50 nM.

As to `Cc1cnc(-n2ncc(C(=O)Nc3ccc(Oc4ccnc5[nH]c(=O)n(C(C)C)c45)c(F)c3)c2C(F)(F)F)nc1` [Example 36, N-(3-fluoro-4-((1-isopropyl-2-oxo-2,3-dihydro-1H-imidazo[4,5-b]pyridine-7-yl)oxy)phenyl)-1-(5-methylpyrimidine-2-yl)-5-(trifluoromethyl)-1H-pyrazole-4-carboxamide], the figures for the IC50 in assay [1] and in assay [2] were 500 to 5000 nM and less than 50 nM, respectively.

With `CCOc1cccnc1-n1ncc(C(=O)Nc2ccc(Oc3ccnc4[nH]c(=O)n(C(C)C)c34)c(F)c2)c1C(F)(F)F` [Example 37, 1-(3-ethoxypyridine-2-yl)-N-(3-fluoro-4-((1-isopropyl-2-oxo-2,3-dihydro-1H-imidazo[4,5-b]pyridine-7-yl)oxy)phenyl)-5-(trifluoromethyl)-1H-pyrazole-4-carboxamide], the results for the IC50 in assay [1] and in assay [2] were 500 to 5000 nM and 50 to 500 nM, respectively.

With `CC(C)n1c(=O)[nH]c2nccc(Oc3ccc(NC(=O)c4cnn(-c5cc(F)ccn5)c4C(F)(F)F)cc3F)c21` [Example 38, N-(3-fluoro-4-((1-isopropyl-2-oxo-2,3-dihydro-1H-imidazo[4,5-b]pyridine-7-yl)oxy)phenyl)-1-(4-fluoropyridine-2-yl)-5-(trifluoromethyl)-1H-pyrazole-4-carboxamide], the IC50 is more than 5000 nM in assay [1] and less than 50 nM in assay [2].

In the case of `O=C(Nc1ccc(Oc2ccnc3[nH]c(=O)n(C4CCOCC4)c23)c(F)c1)c1cnn(-c2ncccc2F)c1C(F)(F)F` [Example 39, N-(3-fluoro-4-((2-oxo-1-(tetrahydro-2H-pyran-4-yl)-2,3-dihydro-1H-imidazo[4,5-b]pyridine-7-yl)oxy)phenyl)-1-(3-fluoropyridine-2-yl)-5-(trifluoromethyl)-1H-pyrazole-4-carboxamide], the IC50 is 500 to 5000 nM in assay [1] and less than 50 nM in assay [2].

Turning to `O=C(Nc1ccc(Oc2ccnc3[nH]c(=O)n(C4CCOC4)c23)c(F)c1)c1cnn(-c2ncccc2F)c1C(F)(F)F` (centres unmarked) [Example 40, N-(3-fluoro-4-((2-oxo-1-(tetrahydrofuran-3-yl)-2,3-dihydro-1H-imidazo[4,5-b]pyridine-7-yl)oxy)phenyl)-1-(3-fluoropyridine-2-yl)-5-(trifluoromethyl)-1H-pyrazole-4-carboxamide], the IC50 was 500 to 5000 nM in assay [1] and less than 50 nM in assay [2].

Regarding `CN1CCC(n2c(=O)[nH]c3nccc(Oc4ccc(NC(=O)c5cnn(-c6ncccc6F)c5C(F)(F)F)cc4F)c32)CC1` [Example 41, N-(3-fluoro-4-((1-(1-methylpiperidine-4-yl)-2-oxo-2,3-dihydro-1H-imidazo[4,5-b]pyridine-7-yl)oxy)phenyl)-1-(3-fluoropyridine-2-yl)-5-(trifluoromethyl)-1H-pyrazole-4-carboxamide], the IC50 in assay [1] is more than 5000 nM; in assay [2] it was less than 50 nM.
